pIC50: −log10 of the molar value. Active and inactive are the calls of the source. No cut-off for these calls is given here.
Key:
[1] = Inhibition of human recombinant PLAP using biotinylated CDP as substrate incubated for 30 mins by chemiluminescent assay
[2] = biological target: T1, Alkaline phosphatase, placental type (Homo sapiens, UniProt P05187); assay: Binding affinity to human PLAP incubated for 15 mins by Fluorescence polarization assay
[3] = biological target: T2, Alkaline phosphatase, tissue-nonspecific isozyme (Homo sapiens) (UniProt P05186); assay: Inhibition of TNAP (unknown origin) at 20 uM using biotinylated CDP as substrate incubated for 30 mins by chemiluminescent assay
T2 sequence (whole entry): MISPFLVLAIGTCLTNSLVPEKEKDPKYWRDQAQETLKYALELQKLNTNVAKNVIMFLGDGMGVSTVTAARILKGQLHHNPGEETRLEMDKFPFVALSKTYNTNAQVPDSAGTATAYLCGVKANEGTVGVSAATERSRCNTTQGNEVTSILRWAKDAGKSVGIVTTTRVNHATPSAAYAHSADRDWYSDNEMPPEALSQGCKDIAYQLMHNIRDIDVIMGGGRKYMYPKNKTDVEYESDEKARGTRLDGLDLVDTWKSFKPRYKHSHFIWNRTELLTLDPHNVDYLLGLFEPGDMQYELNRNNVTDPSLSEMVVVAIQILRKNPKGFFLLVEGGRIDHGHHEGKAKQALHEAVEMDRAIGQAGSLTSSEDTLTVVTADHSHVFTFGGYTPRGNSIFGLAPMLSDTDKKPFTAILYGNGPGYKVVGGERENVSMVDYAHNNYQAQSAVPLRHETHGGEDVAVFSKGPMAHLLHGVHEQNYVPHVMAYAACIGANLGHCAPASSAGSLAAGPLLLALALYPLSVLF

[4] = biological target: T1, Alkaline phosphatase, placental type; assay: Inhibition of human PLAP using biotinylated CDP as substrate incubated for 30 mins by chemiluminescent assay
[5] = biological target: T2, Alkaline phosphatase, tissue-nonspecific isozyme (Homo sapiens); assay: Binding affinity to TNAP (unknown origin) incubated for 15 mins by Fluorescence polarization assay
HeLa [6] = assay: Inhibition of human recombinant PLAP expressed in human HeLa cells assessed as fluorescence intensity at 100 nM incubated for 1 hr by FACS analysis; type: cell-based
HeLa [7] = assay: Inhibition of human recombinant PLAP expressed in human HeLa cells assessed as localization of cell on membrane at 120 nM incubated for 15 mins by Hoechst 33342 staining based laser microscopic analysis
HeLa [8] = assay: Antitumor activity against human HeLa cells xenografted in […] nu/nu mouse assessed as cell accumulation in lung at 2.5 micromol/kg, iv incubated for 1 hr by microscopic analysis; type: functional, organism-based; conditions: dose 2.5 µmol/kg
HeLa [9] = assay: Antitumor activity against human HeLa cells xenografted in […] nu/nu mouse assessed as cell accumulation in heart at 2.5 micromol/kg, iv incubated for 1 hr by microscopic analysis; type: functional, organism-based; conditions: dose 2.5 µmol/kg
SK-OV-3 [10] = assay: Inhibition of human recombinant PLAP expressed in human SK-OV-3 cells assessed as fluorescence intensity at 100 nM incubated for 1 hr by FACS based flow cytometry analysis; type: cell-based
HeLa [11] = assay: Antitumor activity against human HeLa cells xenografted in […] nu/nu mouse assessed as cell accumulation in intestine at 2.5 micromol/kg, iv incubated for 1 hr by microscopic analysis; type: functional, organism-based; conditions: dose 2.5 µmol/kg
HeLa [12] = assay: Induction of cell death in human HeLa cells incubated for 72 hrs in presence of uniCAR T cells by microscopic analysis; type: functional, cell-based
OVCAR-3 = assay: Inhibition of human recombinant PLAP expressed in human OVCAR-3 cells assessed as fluorescence intensity at 100 nM incubated for 1 hr by FACS based flow cytometry analysis; type: cell-based
HeLa [13] = assay: Antitumor activity against human HeLa cells xenografted in […] nu/nu mouse assessed as cell accumulation in spleen at 2.5 micromol/kg, iv incubated for 1 hr by microscopic analysis; type: functional, organism-based; conditions: dose 2.5 µmol/kg
SK-OV-3 [14] = assay: Inhibition of human recombinant PLAP expressed in human SK-OV-3 cells assessed as localization of cell on membrane at 120 nM incubated for 15 mins by Hoechst 33342 staining based laser microscopic analysis
HeLa [15] = assay: Antitumor activity against human HeLa cells xenografted in […] nu/nu mouse assessed as cell accumulation in liver at 2.5 micromol/kg, iv incubated for 1 hr by microscopic analysis; type: functional, organism-based; conditions: dose 2.5 µmol/kg

T1 sequence (P05187 whole entry): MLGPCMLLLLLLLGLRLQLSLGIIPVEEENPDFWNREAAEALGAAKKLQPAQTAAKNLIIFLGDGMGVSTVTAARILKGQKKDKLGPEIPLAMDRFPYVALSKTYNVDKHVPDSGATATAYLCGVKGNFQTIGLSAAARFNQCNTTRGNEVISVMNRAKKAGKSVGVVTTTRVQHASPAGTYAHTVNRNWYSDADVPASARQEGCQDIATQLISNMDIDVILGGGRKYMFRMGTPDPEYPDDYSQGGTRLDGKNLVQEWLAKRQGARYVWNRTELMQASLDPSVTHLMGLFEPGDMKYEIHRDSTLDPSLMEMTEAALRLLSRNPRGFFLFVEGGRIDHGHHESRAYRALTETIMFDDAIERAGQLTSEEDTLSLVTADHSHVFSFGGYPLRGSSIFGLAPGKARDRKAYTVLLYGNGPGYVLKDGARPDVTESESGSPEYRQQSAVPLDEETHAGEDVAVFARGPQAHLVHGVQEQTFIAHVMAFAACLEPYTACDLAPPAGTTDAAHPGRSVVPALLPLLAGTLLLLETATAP

| pIC50 [1] | Activity [2] | Structure (SMILES) | also measured |
| --- | --- | --- | --- |
| 6.89 | Active | COc1c(Cl)cc(-c2cccc(C[C@H](NC(=O)c3cc(-c4ccc(C)o4)[nH]n3)C(=O)O)c2)cc1Cl | – |
| < 4.70 | Active | C[C@@H]1CCC[C@H](C)N1CCC(=O)N[C@@H](CCC(=O)NCC(=O)N[C@@H](CCCCN)C(N)=O)C(=O)NCCCSCc1ccc(F)cc1 | – |
| < 4.70 | – | Cc1cc(NC(=O)[C@H](CCC(=O)NCC(=O)N[C@@H](CCCCN)C(N)=O)NC(=O)CC(C)(C)CC(N)=O)ccc1Br | – |
| – | Active | COc1c(Cl)cc(-c2cccc(C[C@@H](NC(=O)c3cc(-c4ccc(C)o4)[nH]n3)C(=O)O)c2)cc1Cl | inhibition [3]: Active; pIC50 [4]: 7.49; Activity [5]: Active |
| 5.62 | Active | Cc1cc(-c2cnccn2)ccc1NC(=O)[C@@H](CCC(N)=O)n1cc(CNC(=O)c2ccc3ncn(CC(=O)c4ccc(O)c(O)c4)c3c2)nn1 | – |
| 6.62 | Active | Cc1ccc2c(c1)NC(=O)C2CC(=O)N[C@@H](Cc1ccc(-c2ccc(Cl)cc2C(F)(F)F)cc1)C(=O)O (stereo partly drawn) | – |
| < 4.70 | – | Cc1cc(NC(=O)[C@@H](CCC(=O)N[C@@H](CCC(=O)O)C(=O)N[C@@H](CCCCN)C(N)=O)NC(=O)CC(C)(C)CC(N)=O)ccc1Br | – |
| 5.41 | Active | COC(=O)[C@H](Cc1ccc(-c2ccc(Cl)cc2C(F)(F)F)cc1)NC(=O)CC1C(=O)Nc2cc(C)ccc21 (stereo partly drawn) | – |
| – | – | COc1c(Cl)cc(-c2cccc(C[C@@H](NC(=O)c3cc(-c4ccc(C)o4)[nH]n3)C(=O)NCCOCCOCCNC(=S)Nc3ccc(-c4c5ccc(=O)cc-5oc5cc(O)ccc45)c(C(=O)O)c3)c2)cc1Cl | Activity (HeLa [6]): Active; Activity (HeLa [7]): Active; Activity (HeLa [8]): Active; Activity (HeLa [9]): Active; Activity (SK-OV-3 [10]): Active; Activity (HeLa [11]): Active; Activity (HeLa [12]): Active; Activity (OVCAR-3): Active; Activity (HeLa [13]): Active; Activity (SK-OV-3 [14]): Active; Activity (HeLa [15]): Active |
| 4.72 | Active | Cc1ccc(NC(=O)NCC#Cc2ccc(C[C@H](NC(=O)c3nn(C)c(C)c3Br)C(=O)O)cc2)cc1 | – |
| 4.80 | Active | C[C@@H]1CCC[C@H](C)N1CCC(=O)N[C@@H](CCC(=O)N[C@@H](CCC(=O)O)C(=O)N[C@@H](CCCCN)C(N)=O)C(=O)NCCCSCc1ccc(F)cc1 | – |
| 6.08 | Active | NC(=O)CC[C@@H](C(=O)Nc1cccc(Oc2ccccc2)c1)n1cc(CNC(=O)c2ccc3ncn(CC(=O)c4ccc(O)c(O)c4)c3c2)nn1 | – |
| < 4.70 | Active | Cc1ccc(NC(=O)NCC#Cc2ccc(C[C@@H](NC(=O)c3nn(C)c(C)c3Br)C(=O)O)cc2)cc1 | – |
| 4.89 | Active | CC(C)(C)OC(=O)n1c(-c2ccccc2C[C@@H](NC(=O)c2cnc3ccccn3c2=O)C(=O)O)cc2c(Cl)cccc21 | – |
| 5.30 | Active | NC(=O)CC[C@H](C(=O)Nc1cccc(Oc2ccccc2)c1)n1cc(CNC(=O)c2ccc3ncn(CC(=O)c4ccc(O)c(O)c4)c3c2)nn1 | – |
| 5.60 | Active | Cc1cc(-c2cnccn2)ccc1NC(=O)[C@H](CCC(N)=O)n1cc(CNC(=O)c2ccc3ncn(CC(=O)c4ccc(O)c(O)c4)c3c2)nn1 | – |
| 5.40 | Active | CC(C)(C)OC(=O)n1c(-c2ccccc2C[C@H](NC(=O)c2cnc3ccccn3c2=O)C(=O)O)cc2c(Cl)cccc21 | – |

From ChEMBL document CHEMBL5150009, “Specific Inhibitor of Placental Alkaline Phosphatase Isolated from a DNA-Encoded Chemical Library Targets Tumor of the Female Reproductive Tract” (J Med Chem, 2021)
